# Entries after “also recorded” stand apart in the source; their conditions may differ.
# Experiments:
# [1] = test system: folate-resistant mouse neural tube defects; conditions: compared with myo-inositol; cited from earlier work
# [2] = molecular target: Apo-wild type SOD1 protein (Homo sapiens, UniProt P00441); experiment: Trifluoroethanol-induced aggregation of Apo-wild type SOD1, thioflavin T signal; format: biochemical; conditions: SOD1:scyllo-inositol 1:20, 15 minute incubation
# Method: FIG. 3. ApoSOD aggregation-Trifluoroethanol-induced aggregation of Apo-wild type SOD1 protein in the presence and absence of scyllo-inositol after a 15 minute incubation. The thioflavin T signal increases in the presence of scyllo-inositol. Untreated (blue) and SOD1:scyllo-inositol ratio of 1:20(yellow). Inositol related compounds were screened in aggregation assays of apo-SOD1 and the following SOD1 mutants, […] and […]. The […] mutant was chosen for its fast aggregation kinetics, while the […] is intermediary between […] and the slow kinetics of apo-SOD1 (Stathopulos, P. B., et al. (2006) J. Biol. Chem. 281, 6184-6193). Using trifluoroethanol (TFE)-induced aggregation, all three SOD1 proteins aggregate maximally within a 2 hour window (Stathopulos P B, et al. (2003) Proc Natl Acad Soc USA. 100:7021-7026). […] The results were confirmed using a bis-ANS assay that determines the exposure of hydrophobic faces on proteins, as aggregation occurs dye binding to SOD1 should increase ([…], Cunningham P, et al (2002) J Biol. Chem. 277:47551-46556). In the presence of scyllo-inositol, the bis-ANS signal was lower than when protein was incubated alone.
# SOD1 G93V protein [3] = molecular target: T1, SOD1 G93V protein (Homo sapiens, UniProt P00441, G94V); experiment: Trifluoroethanol (TFE)-induced SOD1 aggregation, thioflavin T (ThT) fluorescence; format: biochemical; conditions: SOD1:scyllo-inositol ratio 1:1, 1:10, 1:20 vs untreated
# T1 sequence (P00441 whole entry G94V): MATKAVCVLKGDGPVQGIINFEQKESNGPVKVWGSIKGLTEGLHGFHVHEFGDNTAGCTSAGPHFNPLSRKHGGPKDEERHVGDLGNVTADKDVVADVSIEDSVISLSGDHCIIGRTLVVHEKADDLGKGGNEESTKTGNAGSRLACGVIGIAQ
# Text: (§1) FIG. 1. Aggregation of SOD1 […] protein in the presence and absence of scyllo-inositol. […] Untreated (blue), SOD1:scyllo-inositol ratio of 1:1 (blue), 1:10 (pink) and 1:20(yellow). […] Inositol related compounds were screened in aggregation assays of apo-SOD1 and the following SOD1 mutants, […] and […]. The […] mutant was chosen for its fast aggregation kinetics, while the […] is intermediary between […] and the slow kinetics of apo-SOD1 (Stathopulos, P. B., et al. (2006) J. Biol. Chem. 281, 6184-6193). Using trifluoroethanol (TFE)-induced aggregation, all three SOD1 proteins aggregate maximally within a 2 hour window (Stathopulos P B, et al. (2003) Proc Natl Acad Soc USA. 100:7021-7026). […] The results were confirmed using a bis-ANS assay that determines the exposure of hydrophobic faces on proteins, as aggregation occurs dye binding to SOD1 should increase ([…], Cunningham P, et al (2002) J Biol. Chem. 277:47551-46556). In the presence of scyllo-inositol, the bis-ANS signal was lower than when protein was incubated alone.
# apoSOD1 and mutant SOD1 = experiment: Time course study of ThT signal (kinetics of assembly of SOD1 aggregates); format: biochemical; conditions: in the presence of scyllo-inositol
# Method: Inositol related compounds were screened in aggregation assays of apo-SOD1 and the following SOD1 mutants, […] and […]. The […] mutant was chosen for its fast aggregation kinetics, while the […] is intermediary between […] and the slow kinetics of apo-SOD1 (Stathopulos, P. B., et al. (2006) J. Biol. Chem. 281, 6184-6193). Using trifluoroethanol (TFE)-induced aggregation, all three SOD1 proteins aggregate maximally within a 2 hour window (Stathopulos P B, et al. (2003) Proc Natl Acad Soc USA. 100:7021-7026). […] The results were confirmed using a bis-ANS assay that determines the exposure of hydrophobic faces on proteins, as aggregation occurs dye binding to SOD1 should increase ([…], Cunningham P, et al (2002) J Biol. Chem. 277:47551-46556). In the presence of scyllo-inositol, the bis-ANS signal was lower than when protein was incubated alone.
# Tg SOD1 G37R mice [4] = experiment: Rotarod test of motor function in ALS mouse model; format: in vivo
# Method: (§2) FIG. 2. Motor function of TgSOD1 G37R mice treated or untreated with scyllo-inositol was evaluated using the Rotarod and footprint analyses of gait. […] Stride length 37±2 mm for treated and 18±2 mm for untreated mice (p<0.001). […] Mice were untreated (n=5) or treated with scyllo-inositol (n=5) in drinking water ad libitum from 6.5 months of age and are ongoing at 12 months. Starting at 7.5 months of age, mice underwent weekly evaluation of motor function using the Rotarod test. Mice were given three consecutive trials and the mean time to fall was calculated. […] At 12 months of age, two treated mice were still remaining on the rotarod for >50 sec; untreated mice lost this ability at 11 months of age. […] Scyllo-inositol treatment maintained gait with treated 37±2 versus 18±2 mm stride length in Tg mice (p<0.001).
# Tg SOD1 G37R mice [5] = experiment: Foot print analyses of gait in ALS mouse model; format: in vivo
# Method: as §2
# apo-SOD1 G93S protein = apo-SOD1 G93S protein (Homo sapiens, UniProt P00441, G94S); experiment: Trifluoroethanol-induced aggregation of apo-SOD1 G93S, thioflavin T signal; format: biochemical; conditions: SOD1:scyllo-inositol 1:20, as a function of time
# apo-SOD1 G93S protein, sequence (P00441 whole entry G94S): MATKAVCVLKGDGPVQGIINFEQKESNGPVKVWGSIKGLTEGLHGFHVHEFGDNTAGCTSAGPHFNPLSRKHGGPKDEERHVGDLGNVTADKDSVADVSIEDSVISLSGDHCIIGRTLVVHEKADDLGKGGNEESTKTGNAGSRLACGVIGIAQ
# Text: FIG. 4. ApoSOD1 G93S mutant aggregation—Trifluoroethanol-induced aggregation of apo-SOD1 G93S protein in the presence and absence of scyllo-inositol as a function of time. […] Untreated (blue) and SOD1:scyllo-inositol ratio of 1:20(yellow).
# Inositol related compounds were screened in aggregation assays of apo-SOD1 and the following SOD1 mutants, G93V and G93S. The G93V mutant was chosen for its fast aggregation kinetics, while the G93S is intermediary between G93V and the slow kinetics of apo-SOD1 (Stathopulos, P. B., et al. (2006) J. Biol. Chem. 281, 6184-6193). Using trifluoroethanol (TFE)-induced aggregation, all three SOD1 proteins aggregate maximally within a 2 hour window (Stathopulos P B, et al. (2003) Proc Natl Acad Soc USA. 100:7021-7026). […] The results were confirmed using a bis-ANS assay that determines the exposure of hydrophobic faces on proteins, as aggregation occurs dye binding to SOD1 should increase (Rakhit R, Cunningham P, et al (2002) J Biol. Chem. 277:47551-46556). In the presence of scyllo-inositol, the bis-ANS signal was lower than when protein was incubated alone.
# SOD1 G93V protein [6] = molecular target: T1, SOD1 G93V protein; experiment: bis-ANS assay (exposure of hydrophobic faces on SOD1); format: biochemical; conditions: in the presence of scyllo-inositol vs protein incubated alone
# Text: as §1
# SOD1G93A = experiment: Negative stain electron microscopy of SOD1 aggregates/fibres; format: biochemical; conditions: vs control samples / SOD1 incubated alone
# [7] = test system: cytidine monophosphorylphosphatidate; conditions: cited from earlier work
# Apo-wild type SOD1 protein, sequence (P00441 whole entry): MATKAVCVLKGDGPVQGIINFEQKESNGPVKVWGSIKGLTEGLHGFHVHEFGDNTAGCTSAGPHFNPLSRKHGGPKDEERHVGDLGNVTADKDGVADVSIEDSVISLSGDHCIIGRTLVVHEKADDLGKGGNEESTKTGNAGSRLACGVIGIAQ
smiles,measurement,setting,value
OC1C(O)C(O)C(O)C(O)C1O [D-chiro-inositol],prevention of folate-resistant neural tube defects,[1],more effective than myo-inositol
O[C@H]1[C@H](O)[C@@H](O)[C@H](O)[C@@H](O)[C@@H]1O [scyllo-inositol],Thioflavin T signal / trifluoroethanol-induced aggregation,[2],increases
same,Thioflavin T (ThT) fluorescence signal,SOD1 G93V protein [3],increased; also recorded: increases in a scyllo-inositol concentration dependent manner
same,kinetics of assembly of SOD1 aggregates,apoSOD1 and mutant SOD1,greatly reduced; also recorded: most effective compound
same,onset of disease,"Tg SOD1 G37R mice [4]; Tg SOD1 G37R mice, scyllo-inositol in drinking water ad libitum from 6.5 months of age, untreated 10.1±0.06",10.6±0.22 months
same,time remaining on the rotarod,"Tg SOD1 G37R mice [4]; at 12 months of age, two treated mice, untreated mice lost this ability at 11 months",> 50 s
same,motor function on the rotarod (latency to fall),"Tg SOD1 G37R mice [4]; treated vs untreated Tg SOD1 G37R mice, p=0.029",improvement; also recorded: significantly better
same,stride length,"Tg SOD1 G37R mice [5]; treated Tg SOD1 G37R mice, untreated 18±2 mm, p<0.001",37±2 mm
same,gait (foot print analyses),Tg SOD1 G37R mice [5]; treated versus untreated Tg mice,maintained
same,Thioflavin T signal / trifluoroethanol-induced aggregation,apo-SOD1 G93S protein,increased; also recorded: increases in the presence of scyllo-inositol to a greater extent than in apo-SOD1 G93S protein alone
same,bis-ANS signal,SOD1 G93V protein [6],lower; also recorded: decreases
same,number of SOD1 aggregates/fibres (negative stain electron microscopy),SOD1G93A,decreased; also recorded: no fibres were detected
"OC1C(O)C(O)C(O)C(O)C1O (stereo not drawn) [Epi-inositol, epi-inositol]",reversing lithium effects on cytidine monophosphorylphosphatidate,[7],effective
